Reference: patent US6537545B1, “Use of corneal hardening agents in enzymeorthokeratology” (ISTA Pharmaceuticals, Inc., priority 1998, dated 2003)

Legend:
Assay type in all cases: in vivo
[1] = tested on: Dutch Belted rabbit corneal epithelium; test: Corneal scraping, rate of re-epithelialization (Example 2); conditions: rabbits; scraping on Study Day 71 after 63 days of drops; examined 1, 2, 3 days post-scraping; vs BSS
Protocol: On Study Day 71 (following 63 days of drops), corneal scrapings were performed as follows. Photographs of the uninstrumented eyes were taken after fluorescein staining. Fluorescein staining was performed as described in Example 1. The examined animals were then placed under general anesthesia using ketamine/xylazine also as described in Example 1. Two (2) drops of proparacaine were instilled into both eyes of the examined animal as an anesthetic. The animal to be examined was then placed on an examination table with one eye gently proptosed. A 10×15 mm strip of epithelium from the central cornea was denuded with a sterile #11 scalpel blade (Feather Safety Razor Co., Ltd., Japan). The examined animal was then returned to the slit lamp, topical fluorescein was applied, and the eye was photographed. The animals were examined for reepithelialization at 1, 2, and 3 days post-scraping. Photographs were taken and the rate of re-epithelialization was determined and documented.

[2] = tested on: eyes of myopic human subjects; test: Mild myopia study, group III: corrective lenses and 3% glyceraldehyde without hyaluronidase (Example 9); conditions: for UVA at follow-up after end of treatment: no hyaluronidase
Text: Given the favorable results obtained in Example 8, an additional study was undertaken to test the safety and efficacy of the method of the present invention using a larger group of subjects. In this study, a group of subjects were selected and randomly separated into three test groups to test the safety and efficacy of using hyaluronidase and a glyceraldehyde solution for treating subjects with sub-optimal visual acuity. Groups one and two received an intrastromal injection of hyaluronidase (50 and 500 IU, respectively), while group three received a control injection of saline.
Following a two week incubation period after the injection, the three groups were fitted with corrective lenses to optimize the visual acuity of the subjects. The corrective lenses were left in place for a period of time sufficient to alter the shape of the subjects' eyes so as to achieve an optimal visual acuity. This period of time was generally 2 days in length. Once an acceptable visual acuity was achieved, the subjects in the three groups received a topical 3% glyceraldehyde solution in the form of ophthalmic drops four times per day while wearing the corrective lenses. The glyceraldehyde treatment was generally administered for one month. Lens wear occurred from 8 to 12 hours during the day.
At the end of the treatment period both the lens wear and the glyceraldehyde solution administration was terminated. The general health and visual acuity of the subjects was monitored from 3 to 5 months following treatment termination.
As with groups I and II, the test subjects were examined initially to establish a baseline from which the future results of the treatment were compared. Following the establishment of a baseline reading, group III subjects were fitted with contact lenses and wore the corrective lenses at night for a period of two (2) to seven (7) days or until an acceptable visual acuity (approximately 20/20) was achieved. Unlike groups I and II, group III test subjects in this group received no injection of hyaluronidase during the course of treatment. Subjects achieving an acceptable visual acuity received the topical 3% glyceraldehyde solution in the form of ophthalmic drops four times per day (08:00, 12:00, 16:00, and 20:00) for a period of 1 month in conjunction with daytime lens wear for stabilization. During this period, lens wear occurred for approximately 8-12 hours per day and there was no nocturnal lens wear.
The subjects were examined periodically during the glyceraldehyde treatment to monitor changes in the health of the treated eyes.
At the end of the treatment period, the stabilizing lens were removed and the administration of the 3% glyceraldehyde solution was terminated. Following termination of the treatment, the subjects were examined immediately after treatment was terminated, once a week for the first four weeks after termination, and then monthly to measure changes in the visual acuity of the treated eyes. The health of the eye was also monitored. Sequelae characterized by the appearance or worsening of serious ocular symptoms or slit-lamp findings observed during these examinations was assessed. The proportions of subjects with such findings were analyzed.
The visual acuity values shown are obtained using the Snellen letters test and the Early Treatment Diabetic Retinopathy Study (ETDRS) protocol. The table values shown are the better values as compared between the results of the two methods. The subjects' baseline visual acuity ranged from 20/80 to 20/300.

[3] = tested on: Dutch Belted rabbit corneas; test: Histopathologic examination of harvested corneas (Example 1); conditions: rabbits; eyes harvested Study Day 58
Protocol: The animals were sacrificed and their eyes were harvested on Study Day 58. The animals in the study were euthanised using an intravenous injection of pentobarbital (2 mg/kg). The eyes of the animals were enucleated immediately after sacrifice using Castro-Viejo scissors. The corneas of the eyes were then removed and placed on the end of a glass tube and cut in half. These samples were then snap frozen in liquid nitrogen. […] The corneas were then sectioned, stained with hematoxylin/eosin and the slides were sent to a Board-certified Veterinary Pathologist for interpretation.

[4] = tested on: eyes of myopic human subjects; test: Mild myopia study, group III: corrective lenses and 3% glyceraldehyde without hyaluronidase (Example 9); conditions: no hyaluronidase; subject 011; three month follow-up point; baseline 20/20

With `O=CC(O)CO` (stereo not drawn) [glyceraldehyde] the “healing rate of scraped corneas (re-epithelialization)” value [1] was “healed at a rate equivalent to those of the control”, the “overall effect on retention of orthokeratology benefits” value ([2]; glyceraldehyde treatment in the absence of hyaluronidase) was “effective in extending the retention time” and the “UVA at follow-up after end of treatment” value ([2]; subject 005, four month time point, baseline 20/100) was 20/100. For the same compound, the “UVA at follow-up after end of treatment” value ([2]; subject 006, five month time point, baseline 20/200) was 20/100, the “UVA at follow-up after end of treatment” value ([2]; subject 012, four month time point, baseline 20/200) was 20/100 and the “UVA at follow-up after end of treatment” value ([2]; subject 014, three month time point, baseline 20/80) was 20/50. For the same compound, the “UVA at follow-up after end of treatment” value ([2]; subject 016, four month time point, baseline 20/300) was 20/80, the “UVA at follow-up after end of treatment” value ([2]; subject 016, three month point, baseline 20/300) was 20/60 and the “UVA at follow-up after end of treatment” value ([2]; subject 021, two month time point, baseline 20/80) was 20/60. For the same compound, the “UVA at follow-up after end of treatment” value ([2]; subject 032, two month time point, baseline 20/120) was 20/60, the “histopathologic differences between corneas of control and treated groups” value [3] was “no appreciable differences” and the “UVA at follow-up after end of treatment” value [4] was 20/40.
